Key:
[1] = Superoxide anion chemiluminescent assay (hypoxanthine/xanthine oxidase, Lumimax kit); type: biochemical; conditions: means of 6 independent assays
Description: The superoxide anion has been measured by a chemiluminescent assay based on the hypoxanthine (HPX)/xanthine oxidase (XOD) reaction using the Lumimax Superoxide Anion Detection Kit (Stratagene, La Jolla, Calif., USA) and following the manufacturer's instructions. Hydroxyl radical scavenger activity has been measured by means of the Fenton reaction for the production of hydroxyl radicals and chemiluminescent dosage (using a Victor^3 chemiluminometer, Wallac, Finland) with luminol. Peroxynitrite ions have been determined by means of dosage with a spontaneous generator of peroxynitrites (3-morpholinosidnonimine hydrochloride; SIN-1) and a stable reagent for the nitroxyl ions (2-(4-carboxyphenyl)-4,4,5,5-tetramethylimidazoline-1-oxyl-3-oxide potassium salt PTIO spin trap) then dosed by means of electron spin resonance (ESR) using a Nippon Denshi JES-FR30. Lipid peroxidation has been generated using Fe^2+ induced-oxygen reactive species, and detected using thiobarbituric acid in accordance with Buege, J A & Aust, S D: Microsomal lipid peroxidation (Methods Enzymol.
The results are expressed as the concentration inhibiting 50% of activity (IC50), means of 6 independent assays.

A549 cells (ATCC-CCL185) = test: BSO-induced oxidative stress, ROS by DCF fluorimetry in A549 cells; type: cell-based, human; conditions: 20 μM; with BSO; control without BSO = 100
Protocol: 10×10^5 A549 cells (ATCC-CCL185) have been seeded into wells with 3 ml of DMEM/F12K HAM medium (Sigma-Aldrich) with 10% FCS and incubated at 37° C. in a 5% CO2, water vapour saturated atmosphere. After 24 hours the culture medium is replaced by medium supplemented with BSO, which is left in contact with the cells for 20 hours. The medium is once again replaced with medium containing BSO in the presence or absence of the test compound. After 4 hours, quantitative measurement of the ROSs (hydroxyl radicals) is performed by washing the cells with phosphate buffer and then incubating them with 30 μM DCF-DA in buffer solution. At the end of a 15 minute incubation, excess DCF-DA is removed from the cells by washing, prior to measuring the fluorescence emitted.
Antioxidant activity measurements are performed using a (Hitachi F3010) spectrophotometer with excitation at 488 nm and measuring emission at 525 nm, and values are expressed in pmoles, by extrapolation from the calibration curve constructed using known quantities of DCF, and in relation to total cellular protein. Values are thus expressed in % ages with respect to the ROS content of the cells not subjected to treatment with BSO (control) to which are assigned a value of 100.
The Extracts 1 and 2, Teupolioside and Ascorbic Acid were solubilized in phosphate buffer 10 mM at pH 7.4, whereas trolox was solubilized in 0.1% of dimethylsulphoxide and culture medium.

3T3 fibroblasts = test: BSO-induced oxidative death of 3T3 fibroblasts (MTT); type: cell-based, BALB/c mouse; conditions: 20 μM; BSO 200 μM, 24 hours

## C[C@@H]1O[C@@H](O[C@@H]2[C@@H](O)[C@H](OCCc3ccc(O)c(O)c3)O[C@H](CO)[C@H]2OC(=O)/C=C/c2ccc(O)c(O)c2)[C@H](O[C@@H]2O[C@H](CO)[C@H](O)[C@H](O)[C@H]2O)[C@H](O)[C@H]1O [Teupolioside, teupolioside]
[1]
  Superoxide radical (IC50): 1 µg/mL
A549 cells (ATCC-CCL185)
  % ROS in picomoles: 135 ± 7 %
3T3 fibroblasts
  % survived cells: 75.5%

— patent publication US9623063B2, “Extracts from Ajuga reptans cell lines, their preparation and use” (I.R.B. ISTITUTO DI RICERCHE BIOTECNOLOGICHE S.r.l., priority 2005, dated 2017)
